Among the data in publication PMC6188150, “A small molecule regulator of tissue transglutaminase conformation inhibits the malignant phenotype of cancer cells” (Oncotarget, 2018) are EC50 values, retold here.

The target of the experiment is T1, tissue transglutaminase (tTG) (Homo sapiens, UniProt P21980).
T1 construct: gene TGM2; recombinant tTG
T1 sequence (P21980 2-687): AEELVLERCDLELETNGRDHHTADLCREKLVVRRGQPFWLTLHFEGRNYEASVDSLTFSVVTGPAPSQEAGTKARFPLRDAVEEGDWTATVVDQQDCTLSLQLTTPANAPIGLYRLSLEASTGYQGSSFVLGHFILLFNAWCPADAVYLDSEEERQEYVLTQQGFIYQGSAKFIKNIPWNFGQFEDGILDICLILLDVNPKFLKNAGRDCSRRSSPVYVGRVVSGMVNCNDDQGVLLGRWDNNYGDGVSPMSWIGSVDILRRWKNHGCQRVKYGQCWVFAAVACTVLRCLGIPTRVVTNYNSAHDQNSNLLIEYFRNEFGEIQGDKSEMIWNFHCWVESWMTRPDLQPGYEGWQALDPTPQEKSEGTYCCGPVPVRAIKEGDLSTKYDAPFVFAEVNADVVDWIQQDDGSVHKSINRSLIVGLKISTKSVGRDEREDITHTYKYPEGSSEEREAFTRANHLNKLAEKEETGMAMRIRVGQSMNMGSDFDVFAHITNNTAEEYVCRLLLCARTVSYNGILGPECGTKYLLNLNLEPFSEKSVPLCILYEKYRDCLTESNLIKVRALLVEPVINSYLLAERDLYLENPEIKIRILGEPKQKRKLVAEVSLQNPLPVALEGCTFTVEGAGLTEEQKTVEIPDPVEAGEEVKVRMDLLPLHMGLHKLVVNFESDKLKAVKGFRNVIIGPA
Nature of the experiment: bodipy-GTP-γS fluorescence binding assay after CaCl2 then EDTA; also BPA/NNDC crosslinking inhibition and trypsin susceptibility.

Regarding `Cc1ccc(N/C=C2/C(=O)NC(=O)N(c3ccccc3)C2=O)cc1CN1C(=O)c2ccccc2C1=O` [TTGM 5826], the midpoint of the response, the EC50, lay at 20 µM.
